What was measured:
Met and ERK [1] = test: HGF induced activation of Met and ERK in L3.6pl cells (Western blot); format: cell-based, human; settings: L3.6pl cells, peptide prior to induction with 10 ng/ml HGF
Protocol: (§1) Serum-starved cells (24 hours) were induced with the growth factor HGF (10 ng/mL) at 37° C. for 5 minutes. Where indicated, the cells were treated with peptides (100 ng/ml) prior to induction at 37° C. for 10 minutes (100 ng/mL CD44v6 peptide or control peptide). Following the induction with HGF, cells were washed with ice-cold phosphate-buffered saline (PBS). To detect activated Met and Erk, cells were lysed in sodium dodecyl sulfate (SDS)-sample buffer containing 100 mM dithiothreitol (DTT), boiled and subjected to western blot analysis using antibodies against phospho-Met and ERK. The loading controls were performed on the same blot after stripping (62.5 mM Tris, pH 6.8, 2% SDS, 0.8% DTT) by probing with the Met respectively ERK antibody. Blots were stained using the enhanced chemiluminescence system (Thermo Fisher Scientific, Schwerte, Germany). Bands in western blot analysis were quantified with the program Image J (National Institutes of Health).

BSp73ASs6 cells [2] = test: Rat syngeneic model, subcutaneous BSp73ASs6 tumor, metastasis formation; format: in vivo
Protocol: In the case of the rat syngeneic model, 1×10^6 pancreatic cells (BSp73AS and its transfectants) were subcutaneously injected into the right posterior flank of the animals. Tumors developed for four weeks. During this time period animals injected with BSp73ASs6 cells expressing Met-shRNA or control-shRNA received doxycycline in the drinking water. At the end of the experiment, primary tumors were isolated. Lungs and axillary lymph nodes were analyzed. The tissues were incubated for 24 h in a zinc-fixative (0.5 g calcium acetate, 5.0 g zinc acetate, 5.0 g zinc chloride, in 1 L 0.1 M Tris pH 7.4) and embedded in paraffin for further analysis. In case of peptide or antibody treatment tumors developed for one week before the first treatment. Where indicated, animals received 200 μg of peptide or antibody per injection three times per week for four weeks. Tumor growth was monitored weekly using a caliper. Animals were killed at day 28 or 30 after start of the treatment.
For histo-morphological analysis paraffin-embedded sections of lungs were stained with hematoxylin and eosin and periodic acid-Schiff (H&E or PAS). Serial sections of the whole tissue blocks were examined by analyzing slices every 20 μm; in each slice, the presence and the extension of the metastatic deposit was assessed, according to the procedure routinely used by pathologists to evaluate the presence of micro-metastases.

L3.6pl cells = test: Human orthotopic model of pancreatic cancer, L3.6pl cells in nude mice; format: in vivo; settings: 20 μg i.p. three times per week for three weeks, start 7 days after implantation
Protocol: In the case of the human orthotopic model, L3.6pl pancreatic carcinoma cells (passage 24-26) were suspended in Hank's balanced salt solution (Invitrogen, Karlsruhe, Germany) after trypsinization. The cells were injected orthotopically in the pancreas of male nude mice as described (Bruns C J et al. (1999) Neoplasia 1(1):50-62). Two groups of 15 mice each were injected i.p. 7 days later with either the human v6 peptide respectively rat control peptide (20 μg). For all experiments described and depicted herein either the rat 14mer control peptide or the human 14mer peptide were used. All experiments were then repeated with the rat 5mer control peptide or the human 5mer peptide (N-R-W-H-E, SEQ ID NO: 2). […] The injection was repeated three times per week for 21 days. Two days after the last treatment the animals were killed. […]
A comparison of different CD44v6 peptide derivatives was performed in animals bearing a orthotopic L3.6pl tumor. 10 groups of 5 animals each received a dose of 20 μg peptide per injection three times per week for 3 weeks with the compounds listed in Table 4. Three weeks after starting the treatment the animals were sacrificed and analyzed for macroscopic metastases and tumor volume.

BSp73ASs6 cells [3] = test: Apoptosis in established lung metastases (cleaved Caspase-3, cleaved Caspase-8), BSp73ASs6 rat model; format: in vivo; settings: injection every second day
Protocol: 7 μm thick paraffin sections were deparaffinized and rehydrated. For P-Met staining antigen unmasking was achieved by boiling the slides in 1 mM EDTA pH 8.0 followed by incubation for 15 minutes at a sub-boiling temperature, for CD31 staining the sections were treated with Proteinase K (8 μg/ml) for 10 min at 37° C. For immunofluorescence staining of P-Met, unspecific binding was blocked with 5% goat serum (DAKO, Glostrup, Denmark) (diluted in 1×PBS/0.3% Triton X-100) for 60 minutes. In the case of immunohistochemistry, endogenous peroxidases were at first blocked with 3% H2O2 in PBS followed by incubation with biotin blocking system (Dako, Glostrup, Denmark) and then unspecific binding was inhibited by incubation with 5% FCS in PBS. The sections were incubated with the P-Met antibody (D26, dilution 1:50 in 1×PBS/1% BSA/0.3% Triton X-100), Met antibody (C-28, dilution 1:50), GFP antibody (sc-101525, dilution 1:50) or CD31 antibody (5 μg/ml) over night or VFF18 (5 μg/ml) o/n at 4° C. After washing in PBS the sections were incubated with Alexa Fluor R 546 goat anti-rabbit (in case of immunofluorescence P-Met and Met staining, dilution 1:500) or a biotinylated secondary antibody (for immunohistochemical stainings rabbit anti-rat antibody for VFF18 and CD31, goat anti-rabbit for P-Met, cleaved Caspase-3 and cleaved Caspase-8 and rabbit anti-mouse for GFP, dilution 1:500) for 45 minutes. For DAB (3,3′-diaminobenzidine) staining the sections were treated with a streptavidin-peroxidase conjugate (Dako, Glostrup, Denmark) and developed with DAB substrate system (3,3′-diaminobenzidine; Biozol, Eching, Germany). For immunofluorescence DAPI was used for nuclear staining.
One hypothesis for the disappearance of metastases is that the peptides induce apoptosis of CD44v6-expressing metastatic cells in the secondary organs. In order to test this hypothesis, the experiment described above using the BSp73ASs6 cells was repeated. The cells were injected subcutaneously in syngeneic rats and the tumor was allowed to develop for three weeks. After that time the animals were separated in two groups of 10 animals that were injected either with the specific rat CD44v6 peptide or with the control peptide (mouse) every second day. One day following each injection of the peptide, the lungs of one animal were removed and apoptosis was measured using an antibody that detects the cleaved form of Caspase 3. […] Twelve days after injection of the CD44v6 peptide, less apoptosis was observed. […] From these experiments, it is concluded that the CD44v6 peptide induces apoptosis of metastatic cells.

4T1 cells = test: Syngeneic orthotopic 4T1 mammary carcinoma model in BALB/c mice; format: in vivo; settings: 20 μg i.p. 3 times per week for two weeks
Protocol: FIG. 26: Treatment with the v6 14mer reduces growth of the primary tumor and macroscopic metastases formation in the lung. 1×10^6 murine 4T1 cells per mouse were diluted in 50 μl RPMI plus 50 μl Matrigel and injected into the 6th mammary fat pad of 10 female BALB/c mice. One week after the injection, the mice were either injected intraperitoneally with 20 μg of the murine v6 14mer dissolved in 100 μl PBS or with 20 μg of control peptide (rat v6 14mer) dissolved in 100 μl PBS. The injection was performed 3 times per week for two weeks. After 2 weeks the mice were sacrificed and the primary tumors and the lungs were extracted. A: Overall reduction of the tumor volume in the v6 peptide treated group. B: Immunofluorescent staining for the endothelial marker CD34 to monitor vascularization of the primary tumor. Graphic representation of the reduction of the total vessel area. C: The v6 peptides led to a reduction in macroscopic lung metastasis. The black arrows mark examples for metastases. The scale bar corresponds to a size of 1 cm. Statistical evaluation of the average number of lung metastases. Significance was calculated using Student's t test: p*<0.01; **p<0.005. Each group consisted of 5 animals.
The effect of the CD44v6 14mer was tested in a syngeneic mouse model by orthotopic injection of the murine mammary carcinoma cells 4T1. 4T1 cells were originally derived from a spontaneously arising BALB/c mammary tumor. When introduced orthotopically, 4T1 cells grow rapidly at the primary site and form metastases in the lung and the lymph nodes within a period of 3-6 weeks. The tumor growth and metastatic spreading of 4T1 cells in BALB/c mice very closely mimics human breast cancer stage IV.
The 4T1 cells were injected orthotopically into the 6th mammary fat pad. Two groups of 5 animals each with the implanted tumor cells were then used for the experiment. One group was treated with the v6 14mer peptide, one with a control (rat) peptide. The injection of the peptide was performed 3 times per week and planned for three to four weeks but had to be stopped after two weeks as the control group suffered from large tumors.

Met and ERK [4] = test: HGF induced activation of Met and Erk in BSp73ASs6 cells (Western blot); format: cell-based, rat; settings: BSp73ASs6 cells induced with HGF in the presence of the labeled peptide (FIG. 3A right)
Protocol: as §1
Rat pancreatic cancer cells BSp73ASs6 (also designated Ass6) were incubated for 10 min at 37° C. with either ctrl-peptides (SEQ ID No.: 15), non-pegylated v6-peptides (SEQ ID No.: 11) and increasing concentrations of the pegylated peptides, namely PEG-rat control peptide and PEG-rat CD44v6 peptide, before induction with HGF (10 ng/ml; 5 min at 37° C.).
Activation of ERK and Met was determined by standard SDS and Western Blotting techniques using a phospho-Met and phospho-Erk specific antibody (phospho-Met clone D16 cell signaling, phospho-Erk p42/44 cell signaling)
ASs6 cells, serum starved for 24 h, were induced with HGF (10 ng/ml) at 37° C. for 5 min. Where indicated, the cells were treated with PEGylated or non-PEGylated peptides before induction at 37° C. for 10 min (150 nM). Cells were washed with phosphate-buffered saline (PBS) and lysed in boiling sodium dodecyl sulfate (SDS)-sample buffer containing 100 mM dithiothreitol (DTT). Subsequently, lysates were subjected to Western blot analysis using antibodies against phosphorylated Mek and Erk (Cell signaling). The Mek and Erk loading control were performed on the same blot, stripped (62.5 mM Tris pH 6.8, 2% SDS, 0.8% DTT) and probed with the Mek and Erk antibodies. Blots were stained using the enhanced chemiluminescence system (Thermo Fisher Scientific).

BSp73ASs6 cells [5] = test: Staining of fixed BSp73ASs6 cells with DY681-labeled peptides; format: cell-based, rat; settings: DY681-labeled peptide for one hour
Protocol: ASs6 or L3.6pl cells were seeded at 5,000 cells/well of a Lab-TekR Chamber Slide™ (Nunc, Napierville, Ill., USA). On the following day the cells were washed with cold PBS and fixed with 4% Formalin for 30 min at RT. Unspecific binding was blocked with 1% BSA in PBS for 1 hour at RT. The cells were incubated for 1 hour with the DY681-labeled peptides. After three washing steps with PBS the cover slips were mounted with Fluorescence Mounting Medium (Dako, Glostrup, Denmark) and the immunofluorescence was measured by a laser scanning confocal microscope Leica TCS2 SP2 (Exton, Pa., USA) and processed using Leica confocal software. A 20× objective was used for imaging.

L3.6pl tumors = test: In vivo / ex vivo imaging (Pearl Imager) of mice with L3.6pl tumors; settings: 20 μg i.v., 24 h after injection
Protocol: In vivo imaging of the mice with the L3.6pl tumors was performed using the Pearl™ Imager (LI-COR Biosciences, Bad Homburg, Germany). The system uses two lasers (685 and 785 nm) for excitation and a charge-coupled device detector for signal detection. The laser excitation enables a deep tissue penetration. With the near-infrared detection a high sensitivity due to the reduced tissue auto-fluorescence is achieved. In order to standardize the images we made use of the Pearl Cam Software. The animals were fed with chlorophyll-reduced food to reduce the fluorescence background one week before imaging (Regime 210, safe-diets, Augy, France). Prior to imaging the mice were anesthetized with 2.0% isoflurane. Animals were placed on the heated plate of the imager and continuous delivery of isoflurane was achieved through a nose cone in the imaging drawer. Images were captured at white light, 700 and 800 nm. Animals were imaged prior to i.v. peptide injection and 24 h after injection with either DY681-labeled human v6 peptide or DY681-labeled rat v6 peptide as control. Immediately after each imaging session animals were killed, tumor, liver and spleen isolated and scanned ex vivo at white light, 700 and 800 nm.

BSp73ASs6 tumors = settings: rat
Protocol: In vivo imaging of the subcutaneously grown BSp73ASs6 tumors in BD10 or BDX rats was performed using the near infrared fluorescence (NIRF)-imaging system Optix MX2 (ART, Montreal, Canada) as described earlier (Napp et al., Int J Cancer (2010), 127:1958-1974). To avoid autofluorescence of fur, rats were shaved around the tumor prior to imaging. Subsequently, animals were anesthetized using 2% isoflurane and gently fixed on the devices' heated plate for the entire time of data acquisition. To reduce fluorescence background, rats were fed with chlorophyll-reduced food (Provimi Kliba AG, Kaiseraugst, Switzerland) for one week prior NIRF imaging. All in vivo analyses were preceded by native scans of animals without any injection of the fluorescent probe. […] The rat 11mer had the sequence [sequence] (SEQ ID No.: 12), the mouse 11mer had the sequence [sequence] (SEQ ID No.: 13) and the human 11mer had the sequence [sequence] (SEQ ID No.: 14). All peptides were labeled with the fluorescent dye DY681. Data were acquired at the indicated time after injection of the peptides. For ex vivo monitoring animals were sacrificed after 24 hrs after peptide injection and tumor and organs of interest were scanned ex vivo using Optix MX2.
DY681 fluorescence was measured using excitation at 670 nm in combination with a 700 nm long-pass emission filter. […] Data sets were analyzed with OptiView (ART).

| Sequence | Phosphorylation of Met and ERK (Met and ERK [1]) | metastasis (axillary lymph nodes, lungs) (BSp73ASs6 cells [2]; 200 μg per injection, intra-tumoral or intravenously three times a week, start after one week of tumor growth) | outgrowth of primary tumors (BSp73ASs6 cells [2]; same treatment, 28 days) | metastasis and micro-metastasis in lung sections (PAS and H&E staining) (BSp73ASs6 cells [2]; same treatment, histological analysis) | metastasis formation (liver) (L3.6pl cells) | outgrowth of the primary tumor in the pancreas (L3.6pl cells) | lung metastasis at day twenty-two (BSp73ASs6 cells [3]) | time of maximum of apoptosis (BSp73ASs6 cells [3]) | first detection of apoptotic cells (cleaved Caspase 3) in tumor areas of the lungs (BSp73ASs6 cells [3]; start three weeks after tumor cell injection) | average number of metastases (4T1 cells; 5 animals) | macroscopic lung metastases per animal (4T1 cells; 5 animals per group) | inhibition of Met activation by DY681 labeled peptide (Met and ERK [4]) | binding to BSp73ASs6 cells in tissue culture (BSp73ASs6 cells [5]) | fluorescence / accumulation in the orthotopic L3.6pl tumor in vivo (L3.6pl tumors) | fluorescence in excised tumors and lungs ex vivo (BSp73ASs6 tumors) |
| --- | --- | --- | --- | --- | --- | --- | --- | --- | --- | --- | --- | --- | --- | --- | --- |
| KEKWFENEWQGKNP [rat 14mer, rat CD44v6 14mer; control peptide in human and mouse models] | had no influence on receptor activation and signal transduction | completely inhibited metastasis | not influenced by either treatment | neither metastasis nor micro-metastasis could be detected | neither any influence on metastasis formation | nor on growth of the primary tumor | no metastasis could be detected anymore | eight days after the first injection | as early as three days after the first injection | 6 metastases per lung | all mice treated with the control peptide developed metastases | – | – | – | – |
| WFQNGWQGKNP [mv6 pep Dy681, mouse v6 11mer labeled with DY681, control, reference compound] | – | – | – | – | – | – | – | – | – | – | – | not the mouse peptide inhibited Met activation | not the DY681-labeled mouse v6 peptide bound to BSp73ASs6 cells | – | – |
| WFENEWQGKNP [rv6 pep Dy681] | – | – | – | – | – | – | – | – | – | – | – | inhibited Met activation | bound to BSp73ASs6 cells in tissue culture | No fluorescence was detected | could only be detected in tumors and in specific areas of the lungs |

Reference: patent US9593146B2, “CD44v6-derived peptides for treating metastasizing cancer” (AMCURE GMBH, priority 2012, dated 2017)
